Values quoted from earlier work in patent US7713673B2, “Fixing liquid, toner fixing method, toner fixing device, image forming method, and image forming apparatus” (priority 2005, dated 2010).

Settings: acute oral toxicity; given in brackets as a material property of the component

| Compound | LD50 |
| --- | --- |
| CC(C)COC(=O)CCCCC(=O)OCC(C)C [diisobutyl adipate] | 12800 mg/kg |
| CCCCOC(=O)CCCCCCCCC(=O)OCCCC [dibutyl sebacate] | 12800 mg/kg |
| CCOCCOC(=O)CCC(=O)OCCOCC [diethoxyethyl succinate] | 5000 mg/kg |
| CCO [ethanol] | 15000 mg/kg |
| CCCCCCCCCCCC(=O)OCC [ethyl laurate] | 5000 mg/kg |
| CC(O)CO (stereo not shown) [propylene glycol] | 15000 mg/kg |
| CC(O)CCO (stereo not shown) [1,3-butanediol] | 10000 mg/kg |
